Values belong to the compound of their own block, whether it stands above or below them. Active and inactive are the calls of the source. The rule behind the calls is not given here.
Tests used:
Bone [1] = assay: Biodistribution in ddY mouse bone assessed per gram of tissue at 0.2 to 0.4 uCi, iv after 60 mins; assay type: ADME, organism-based, Bone element; settings: in vivo, 1 h
Blood [2] = assay: Biodistribution in ddY mouse blood assessed per gram of tissue at 0.2 to 0.4 uCi, iv after 30 mins; assay type: ADME, organism-based; settings: in vivo, 0.5 h
Blood [3] = assay: Biodistribution in ddY mouse blood assessed per gram of tissue at 0.2 to 0.4 uCi, iv after 60 mins; assay type: ADME, organism-based; settings: in vivo, 1 h
Bone [4] = assay: Biodistribution in ddY mouse bone assessed per gram of tissue at 0.2 to 0.4 uCi, iv after 2 mins; assay type: ADME, organism-based, Bone element; settings: in vivo
Brain [5] = assay: Drug elimination from ddY mouse brain assessed per gram of tissue after 60 mins; assay type: ADME, organism-based; settings: in vivo, 1 h
Blood [6] = assay: Biodistribution in ddY mouse blood assessed per gram of tissue at 0.2 to 0.4 uCi, iv after 10 mins; assay type: ADME, organism-based; settings: in vivo
Brain [7] = assay: Biodistribution in ddY mouse brain assessed per gram of tissue at 0.2 to 0.4 uCi, iv after 10 mins; assay type: ADME, organism-based; settings: in vivo
Brain [8] = assay: Biodistribution in ddY mouse brain assessed per gram of tissue at 0.2 to 0.4 uCi, iv after 30 mins; assay type: ADME, organism-based; settings: in vivo, 0.5 h
Brain [9] = assay: Biodistribution in ddY mouse brain assessed per gram of tissue at 0.2 to 0.4 uCi, iv after 60 mins; assay type: ADME, organism-based; settings: in vivo, 1 h
Blood [10] = assay: Biodistribution in ddY mouse blood assessed per gram of tissue at 0.2 to 0.4 uCi, iv after 2 mins; assay type: ADME, organism-based; settings: in vivo
Bone [11] = assay: Biodistribution in ddY mouse bone assessed per gram of tissue at 0.2 to 0.4 uCi, iv after 10 mins; assay type: ADME, organism-based, Bone element; settings: in vivo
Bone [12] = assay: Biodistribution in ddY mouse bone assessed per gram of tissue at 0.2 to 0.4 uCi, iv after 30 mins; assay type: ADME, organism-based, Bone element; settings: in vivo, 0.5 h
Brain [13] = assay: Biodistribution in ddY mouse brain assessed per gram of tissue at 0.2 to 0.4 uCi, iv after 2 mins; assay type: ADME, organism-based; settings: in vivo
Intestine [14] = assay: Biodistribution in ddY mouse intestine assessed per gram of tissue at 0.2 to 0.4 uCi, iv after 10 mins; assay type: ADME, organism-based; settings: in vivo
[15] = Octanol-water partition coefficient, log P of the compound at pH 7.4; assay type: physicochemical
Spleen [16] = assay: Biodistribution in ddY mouse spleen assessed per gram of tissue at 0.2 to 0.4 uCi, iv after 60 mins; assay type: ADME, organism-based; settings: in vivo, 1 h
Spleen [17] = assay: Biodistribution in ddY mouse spleen assessed per gram of tissue at 0.2 to 0.4 uCi, iv after 10 mins; assay type: ADME, organism-based; settings: in vivo
Heart [18] = assay: Biodistribution in ddY mouse heart assessed per gram of tissue at 0.2 to 0.4 uCi, iv after 60 mins; assay type: ADME, organism-based; settings: in vivo, 1 h
Intestine [19] = assay: Biodistribution in ddY mouse intestine assessed per gram of tissue at 0.2 to 0.4 uCi, iv after 30 mins; assay type: ADME, organism-based; settings: in vivo, 0.5 h
Intestine [20] = assay: Biodistribution in ddY mouse intestine assessed per gram of tissue at 0.2 to 0.4 uCi, iv after 60 mins; assay type: ADME, organism-based; settings: in vivo, 1 h
Pancreas [21] = assay: Biodistribution in ddY mouse pancreas assessed per gram of tissue at 0.2 to 0.4 uCi, iv after 30 mins; assay type: ADME, organism-based; settings: in vivo, 0.5 h
Spleen [22] = assay: Biodistribution in ddY mouse spleen assessed per gram of tissue at 0.2 to 0.4 uCi, iv after 2 mins; assay type: ADME, organism-based; settings: in vivo
Liver [23] = assay: Biodistribution in ddY mouse liver assessed per gram of tissue at 0.2 to 0.4 uCi, iv after 2 mins; assay type: ADME, organism-based; settings: in vivo
Stomach [24] = assay: Biodistribution in ddY mouse stomach assessed per gram of tissue at 0.2 to 0.4 uCi, iv after 60 mins; assay type: ADME, organism-based; settings: in vivo, 1 h
Liver [25] = assay: Biodistribution in ddY mouse liver assessed per gram of tissue at 0.2 to 0.4 uCi, iv after 60 mins; assay type: ADME, organism-based; settings: in vivo, 1 h
Kidney [26] = assay: Biodistribution in ddY mouse kidney assessed per gram of tissue at 0.2 to 0.4 uCi, iv after 30 mins; assay type: ADME, organism-based; settings: in vivo, 0.5 h
Pancreas [27] = assay: Biodistribution in ddY mouse pancreas assessed per gram of tissue at 0.2 to 0.4 uCi, iv after 60 mins; assay type: ADME, organism-based; settings: in vivo, 1 h
Liver [28] = assay: Biodistribution in ddY mouse liver assessed per gram of tissue at 0.2 to 0.4 uCi, iv after 30 mins; assay type: ADME, organism-based; settings: in vivo, 0.5 h
Pancreas [29] = assay: Biodistribution in ddY mouse pancreas assessed per gram of tissue at 0.2 to 0.4 uCi, iv after 2 mins; assay type: ADME, organism-based; settings: in vivo
Stomach [30] = assay: Biodistribution in ddY mouse stomach assessed per gram of tissue at 0.2 to 0.4 uCi, iv after 2 mins; assay type: ADME, organism-based; settings: in vivo
Kidney [31] = assay: Biodistribution in ddY mouse kidney assessed per gram of tissue at 0.2 to 0.4 uCi, iv after 10 mins; assay type: ADME, organism-based; settings: in vivo
Spleen [32] = assay: Biodistribution in ddY mouse spleen assessed per gram of tissue at 0.2 to 0.4 uCi, iv after 30 mins; assay type: ADME, organism-based; settings: in vivo, 0.5 h
Heart [33] = assay: Biodistribution in ddY mouse heart assessed per gram of tissue at 0.2 to 0.4 uCi, iv after 10 mins; assay type: ADME, organism-based; settings: in vivo
Intestine [34] = assay: Biodistribution in ddY mouse intestine assessed per gram of tissue at 0.2 to 0.4 uCi, iv after 2 mins; assay type: ADME, organism-based; settings: in vivo
Kidney [35] = assay: Biodistribution in ddY mouse kidney assessed per gram of tissue at 0.2 to 0.4 uCi, iv after 60 mins; assay type: ADME, organism-based; settings: in vivo, 1 h
Liver [36] = assay: Biodistribution in ddY mouse liver assessed per gram of tissue at 0.2 to 0.4 uCi, iv after 10 mins; assay type: ADME, organism-based; settings: in vivo
Kidney [37] = assay: Biodistribution in ddY mouse kidney assessed per gram of tissue at 0.2 to 0.4 uCi, iv after 2 mins; assay type: ADME, organism-based; settings: in vivo
Heart [38] = assay: Biodistribution in ddY mouse heart assessed per gram of tissue at 0.2 to 0.4 uCi, iv after 2 mins; assay type: ADME, organism-based; settings: in vivo
Heart [39] = assay: Biodistribution in ddY mouse heart assessed per gram of tissue at 0.2 to 0.4 uCi, iv after 30 mins; assay type: ADME, organism-based; settings: in vivo, 0.5 h
Stomach [40] = assay: Biodistribution in ddY mouse stomach assessed per gram of tissue at 0.2 to 0.4 uCi, iv after 10 mins; assay type: ADME, organism-based; settings: in vivo
Pancreas [41] = assay: Biodistribution in ddY mouse pancreas assessed per gram of tissue at 0.2 to 0.4 uCi, iv after 10 mins; assay type: ADME, organism-based; settings: in vivo
Stomach [42] = assay: Biodistribution in ddY mouse stomach assessed per gram of tissue at 0.2 to 0.4 uCi, iv after 30 mins; assay type: ADME, organism-based; settings: in vivo, 0.5 h
[43] = Displacement of [125I]IMPY from amyloid beta (1 to 42) after 3 hrs by gamma counting
[44] = molecular target: Amyloid-beta precursor protein (Homo sapiens) (UniProt P05067); assay: Binding affinity to beta-amyloid plaque in normal human brain sections at 1.6 uCi after 1 hr by autoradiography; settings: tested as the 125I-labelled form
Chain of Amyloid-beta precursor protein (Homo sapiens) (P05067 whole entry): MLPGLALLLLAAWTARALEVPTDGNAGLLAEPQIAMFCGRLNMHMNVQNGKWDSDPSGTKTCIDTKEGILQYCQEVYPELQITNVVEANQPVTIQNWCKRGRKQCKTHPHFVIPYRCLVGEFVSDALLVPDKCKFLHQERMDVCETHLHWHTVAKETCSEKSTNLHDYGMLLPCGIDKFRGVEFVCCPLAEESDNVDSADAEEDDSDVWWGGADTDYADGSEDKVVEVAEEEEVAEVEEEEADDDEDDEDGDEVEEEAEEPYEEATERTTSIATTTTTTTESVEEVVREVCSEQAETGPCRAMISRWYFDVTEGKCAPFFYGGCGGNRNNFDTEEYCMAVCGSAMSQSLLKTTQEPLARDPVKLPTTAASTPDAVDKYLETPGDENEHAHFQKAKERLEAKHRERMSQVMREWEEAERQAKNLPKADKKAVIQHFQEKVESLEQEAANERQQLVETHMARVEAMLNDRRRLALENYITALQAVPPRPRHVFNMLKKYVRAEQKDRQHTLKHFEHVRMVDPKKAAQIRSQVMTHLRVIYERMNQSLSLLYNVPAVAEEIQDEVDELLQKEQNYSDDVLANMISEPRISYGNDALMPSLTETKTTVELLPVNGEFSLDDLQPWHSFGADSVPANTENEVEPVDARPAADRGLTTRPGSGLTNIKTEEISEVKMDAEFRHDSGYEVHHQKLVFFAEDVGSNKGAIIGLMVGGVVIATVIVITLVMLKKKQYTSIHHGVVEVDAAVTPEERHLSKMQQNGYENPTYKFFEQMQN

Mus musculus [45] = species on record: Mus musculus; assay: Binding affinity to amyloid beta (1 to 42) in wild type mouse brain sections by neuropathological staining method; assay type: tissue-based
[46] = molecular target: Amyloid-beta precursor protein (Homo sapiens) (UniProt P05067); assay: Binding affinity to beta-amyloid plaque in brain of patient with Alzheimers disease at 1.6 uCi after 1 hr by autoradiography; assay type: tissue-based; settings: tested as the 125I-labelled form
Mus musculus [47] = species on record: Mus musculus; assay: Binding affinity to amyloid beta (1 to 42) in Tg2576 mouse brain sections by neuropathological staining method; assay type: tissue-based

- Drug uptake (Bone [1]): 3.42 %ID
- Drug uptake (Blood [2]): 2.68 %ID
- Drug uptake (Blood [3]): 2.61 %ID
- Drug uptake (Bone [4]): 2.03 %ID
- CL (Brain [5]): 1.75 %ID
- Drug uptake (Blood [6]): 2.84 %ID
- Drug uptake (Brain [7]): 2.37 %ID
- Drug uptake (Brain [8]): 1.77 %ID
- Drug uptake (Brain [9]): 1.75 %ID
- Drug uptake (Blood [10]): 5.72 %ID
- Drug uptake (Bone [11]): 2.13 %ID
- Drug uptake (Bone [12]): 3.45 %ID
- Drug uptake (Brain [13]): 3.66 %ID
Compound: O=C1/C(=C/c2ccc(OCC[18F])cc2)Oc2ccc(I)cc21

- Drug uptake (Intestine [14]): 6.53 %ID
- logD [15]: 2.45
- Drug uptake (Spleen [16]): 2.37 %ID
- Drug uptake (Spleen [17]): 4.33 %ID
- Drug uptake (Heart [18]): 1.19 %ID
- Drug uptake (Intestine [19]): 12.35 %ID
- Drug uptake (Blood [2]): 1.94 %ID
- Drug uptake (Blood [3]): 1.29 %ID
- Drug uptake (Intestine [20]): 15.74 %ID
- Drug uptake (Pancreas [21]): 0.8 %ID
- Drug uptake (Spleen [22]): 3.74 %ID
- Drug uptake (Liver [23]): 17.06 %ID
- CL (Brain [5]): 0.19 %ID
- Drug uptake (Stomach [24]): 0.89 %ID
- Drug uptake (Liver [25]): 10.96 %ID
- Drug uptake (Kidney [26]): 5.49 %ID
- Drug uptake (Pancreas [27]): 1.35 %ID
- Drug uptake (Liver [28]): 12.44 %ID
- Drug uptake (Pancreas [29]): 3.44 %ID
- Drug uptake (Stomach [30]): 0.61 %ID
- Drug uptake (Kidney [31]): 7.53 %ID
- Drug uptake (Spleen [32]): 3.61 %ID
- Drug uptake (Heart [33]): 1.95 %ID
- Drug uptake (Intestine [34]): 2.02 %ID
- Drug uptake (Kidney [35]): 5.22 %ID
- Drug uptake (Blood [6]): 3.13 %ID
- Drug uptake (Liver [36]): 16.5 %ID
- Drug uptake (Kidney [37]): 6.96 %ID
- Drug uptake (Brain [7]): 0.84 %ID
- Drug uptake (Heart [38]): 4.9 %ID
- Drug uptake (Brain [8]): 0.19 %ID
- Drug uptake (Brain [9]): 0.19 %ID
- Drug uptake (Heart [39]): 1.54 %ID
- Drug uptake (Stomach [40]): 1.46 %ID
- Drug uptake (Blood [10]): 6.7 %ID
- Drug uptake (Pancreas [41]): 1.33 %ID
- Drug uptake (Brain [13]): 2.34 %ID
- Drug uptake (Stomach [42]): 0.79 %ID
Compound: O=C1/C(=C/c2ccc(OCCF)cc2)Oc2ccc([125I])cc21

- Activity [43]: Dose-dependent effect
- Ki [43]: 6.81 nM
- Activity [44]: inactive
- Activity (Mus musculus [45]): inactive
- Activity [46]: Active
- Activity (Mus musculus [47]): Active
Compound: O=C1/C(=C/c2ccc(OCCF)cc2)Oc2ccc(I)cc21
